These results are taken from PubChem BioAssay AID624129 (Sanford-Burnham Center for Chemical Genomics, 2012).

Assay in all cases: CXCR6 receptor antagonists, dose response, cell-based, beta-arrestin, DiscoveRx, APJ panel, uHTS hits (AID 624129)
For experiment [1], the target named is C-X-C chemokine receptor type 6 (Homo sapiens) (UniProt O00574). The following applies: CXCR6 beta-arrestin (DiscoveRx) antagonist cell assay; for inhibition: CXCR6, run 1, dose range 2, at 80 µM (top of the series).
For experiment [2], the target named is Beta-galactosidase (Escherichia coli) (UniProt Q8VNN2). The note with it: CXCR6 beta-arrestin (DiscoveRx) antagonist cell assay, b-galactosidase.
In experiment [3] the target is Apelin receptor (Homo sapiens) (UniProt P35414). The note with it: CXCR6 beta-arrestin (DiscoveRx) antagonist cell assay, APJ.
Experiment [4] has as its target C-C chemokine receptor type 6 (Homo sapiens) (UniProt P51684). The following applies: CXCR6 beta-arrestin (DiscoveRx) antagonist cell assay.
[5] abbreviates: CXCR6, dose range 1, mean IC50 across replicates.
[6] abbreviates: dose range 1, mean IC50 across replicates.
Setting [7] is: CCR6, dose range 1, mean IC50 across replicates.

Active and inactive are the calls of the source. No rule for the calls is given here.

Sequence of Beta-galactosidase (Escherichia coli) (Q8VNN2 whole entry, looked up): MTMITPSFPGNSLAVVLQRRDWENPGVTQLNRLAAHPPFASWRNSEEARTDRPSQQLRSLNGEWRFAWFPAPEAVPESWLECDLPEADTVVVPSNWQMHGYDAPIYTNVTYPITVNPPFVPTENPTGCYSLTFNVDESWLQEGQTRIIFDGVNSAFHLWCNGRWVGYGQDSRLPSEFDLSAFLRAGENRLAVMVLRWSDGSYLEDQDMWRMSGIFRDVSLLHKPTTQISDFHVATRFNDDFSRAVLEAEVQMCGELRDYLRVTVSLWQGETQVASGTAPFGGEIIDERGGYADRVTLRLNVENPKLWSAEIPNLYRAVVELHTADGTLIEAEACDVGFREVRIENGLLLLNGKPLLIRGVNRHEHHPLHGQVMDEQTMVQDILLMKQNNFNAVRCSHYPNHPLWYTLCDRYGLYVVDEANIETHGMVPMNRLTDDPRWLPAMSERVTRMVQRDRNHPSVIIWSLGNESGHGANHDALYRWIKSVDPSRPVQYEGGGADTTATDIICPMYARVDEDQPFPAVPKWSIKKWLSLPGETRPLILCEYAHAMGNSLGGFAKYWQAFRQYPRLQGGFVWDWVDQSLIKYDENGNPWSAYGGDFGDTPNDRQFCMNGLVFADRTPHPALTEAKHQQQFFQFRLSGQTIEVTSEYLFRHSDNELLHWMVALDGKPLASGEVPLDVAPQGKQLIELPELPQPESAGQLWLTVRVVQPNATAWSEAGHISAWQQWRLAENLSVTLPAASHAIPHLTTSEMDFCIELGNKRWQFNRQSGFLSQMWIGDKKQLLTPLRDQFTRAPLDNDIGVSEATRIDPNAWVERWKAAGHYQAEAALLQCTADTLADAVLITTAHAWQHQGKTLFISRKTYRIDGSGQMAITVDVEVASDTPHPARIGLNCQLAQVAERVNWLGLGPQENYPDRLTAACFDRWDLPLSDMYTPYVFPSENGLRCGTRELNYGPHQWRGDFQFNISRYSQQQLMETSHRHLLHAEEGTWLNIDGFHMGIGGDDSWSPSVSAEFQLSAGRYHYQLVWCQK
Sequence of C-X-C chemokine receptor type 6 (Homo sapiens) (O00574 whole entry, looked up): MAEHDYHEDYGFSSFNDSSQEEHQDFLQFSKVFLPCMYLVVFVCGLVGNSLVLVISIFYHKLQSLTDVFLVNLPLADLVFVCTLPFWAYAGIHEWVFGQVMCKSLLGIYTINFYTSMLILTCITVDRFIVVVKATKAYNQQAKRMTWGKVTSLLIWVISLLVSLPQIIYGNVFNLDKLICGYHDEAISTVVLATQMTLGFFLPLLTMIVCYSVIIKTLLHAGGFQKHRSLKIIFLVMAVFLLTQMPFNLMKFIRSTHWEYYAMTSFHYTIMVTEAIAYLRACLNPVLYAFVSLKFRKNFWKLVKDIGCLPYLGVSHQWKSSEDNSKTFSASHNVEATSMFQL

Consider `Cc1ccnc(N2C(=O)c3cccc4c([N+](=O)[O-])ccc(c34)C2=O)c1`, for which the IC50 (commonly the concentration that inhibits the measured activity by half) in experiment [1] (CXCR6, dose range 1) was 4.5 µM; in experiment [1] (setting [5]), 3.54 µM; in experiment [1] (CXCR6, run 2, dose range 1), 2.58 µM; in experiment [2] (dose range 1) it was > 80 µM (inactive); in experiment [2] (setting [6]) it was greater than 80 µM; in experiment [3] (dose range 1), 4.63 µM. Also, the IC50 in experiment [3] (setting [6]) was 5.01 µM; in experiment [3] (run 2, dose range 1) it was 5.47 µM; in experiment [3] (run 3, dose range 1), 4.92 µM; in experiment [4] (CCR6, dose range 1) it was 2.2 µM; in experiment [4] (setting [7]), 2.6 µM; in experiment [4] (CCR6, run 2, dose range 1) it was 3 µM. In experiment [1], the inhibition (commonly the drop in the measured response relative to a control, in per cent) was 129%.

For the compound `CC(=O)OCCCNc1cc(Sc2ccc(C)cc2)c2nonc2c1[N+](=O)[O-]`, the IC50 in experiment [1] (CXCR6, dose range 1) was > 80 µM (inactive); in experiment [1] (setting [5]) it was greater than 80 µM; in experiment [1] (CXCR6, run 2, dose range 1), greater than 80 µM; in experiment [2] (dose range 1), > 80 µM (inactive); in experiment [2] (setting [6]), greater than 80 µM; in experiment [3] (setting [6]) it was greater than 80 µM. The IC50 in experiment [3] (run 2, dose range 1) was greater than 80 µM; in experiment [3] (run 3, dose range 1), greater than 80 µM; in experiment [4] (setting [7]), greater than 80 µM; in experiment [4] (CCR6, run 2, dose range 1), greater than 80 µM. Further, in experiment [1], the inhibition was -24.2%.

For `Cc1ccc(OCCN2C(=O)c3ccccc3C2=O)c([N+](=O)[O-])c1`, the IC50 in experiment [1] (CXCR6, dose range 1) was 6.4 µM; in experiment [1] (setting [5]) it was 5.31 µM; in experiment [1] (CXCR6, run 1, dose range 2), 5.94 µM; in experiment [1] (CXCR6, run 2, dose range 1), 4.95 µM; in experiment [1] (CXCR6, run 2, dose range 2), 3.96 µM; in experiment [2] (dose range 1), > 80 µM (inactive). For the same compound, the IC50 in experiment [2] (setting [6]) is greater than 80 µM; in experiment [3] (dose range 1), 4.29 µM; in experiment [3] (setting [6]), 5.81 µM; in experiment [3] (run 2, dose range 1), 7.87 µM; in experiment [3] (run 3, dose range 1) it was 5.29 µM; in experiment [4] (CCR6, dose range 1), 8.16 µM. In addition, the IC50 in experiment [4] (setting [7]) worked out at 6.82 µM; in experiment [4] (CCR6, run 2, dose range 1) it was 5.48 µM.

Consider `O=S(=O)(/C=C/C=C/S(=O)(=O)c1ccccc1)c1ccccc1`, for which the IC50 in experiment [1] (CXCR6, dose range 1) was 11.6 µM; in experiment [1] (setting [5]) it was 10.5 µM; in experiment [1] (CXCR6, run 1, dose range 2) it was 10.1 µM; in experiment [1] (CXCR6, run 2, dose range 1), 8.76 µM; in experiment [1] (CXCR6, run 2, dose range 2), 11.4 µM; in experiment [2] (dose range 1) it was > 80 µM (inactive). The IC50 in experiment [2] (setting [6]) is greater than 80 µM; in experiment [3] (dose range 1), 23.5 µM; in experiment [3] (setting [6]) it was 24.6 µM; in experiment [3] (run 2, dose range 1) it was 25.7 µM; in experiment [3] (run 3, dose range 1), greater than 80 µM; in experiment [4] (CCR6, dose range 1), 7.48 µM. Also, the IC50 amounted to 7.41 µM in experiment [4] (setting [7]) and 7.33 µM in experiment [4] (CCR6, run 2, dose range 1).

Take `CC(=O)OCCCNc1cc(Sc2nc3ccccc3s2)c2nonc2c1[N+](=O)[O-]`: the IC50 is 8.69 µM in experiment [1] (setting [5]); 8.09 µM in experiment [1] (CXCR6, run 1, dose range 2); greater than 80 µM in experiment [1] (CXCR6, run 2, dose range 1); 9.29 µM in experiment [1] (CXCR6, run 2, dose range 2); > 80 µM (inactive) in experiment [2] (dose range 1); greater than 80 µM in experiment [2] (setting [6]). Also, the IC50 in experiment [3] (dose range 1) was > 80 µM (inactive); in experiment [3] (setting [6]), greater than 80 µM; in experiment [3] (run 2, dose range 1), greater than 80 µM; in experiment [3] (run 3, dose range 1), greater than 80 µM; in experiment [4] (CCR6, dose range 1) it was 6.38 µM; in experiment [4] (setting [7]), 30 µM. Also, in experiment [4] (CCR6, run 2, dose range 1), the IC50 was 53.6 µM.

`CCC(C)c1ccc(O)c(NC(=S)NC(=O)c2cccnc2)c1` (stereo not drawn): the IC50 result in experiment [1] (CXCR6, dose range 1) is “inactive”; in experiment [2] (dose range 1), “inactive”. For the same compound, the IC50 is 12.9 µM in experiment [1] (setting [5]); 8.01 µM in experiment [1] (CXCR6, run 1, dose range 2); 20.2 µM in experiment [1] (CXCR6, run 2, dose range 1); 12.9 µM in experiment [1] (CXCR6, run 2, dose range 2); 56 µM in experiment [2] (setting [6]); 8.9 µM in experiment [3] (dose range 1). Further, the IC50 in experiment [3] (setting [6]) was 11.3 µM; in experiment [3] (run 2, dose range 1) it was 14.6 µM; in experiment [3] (run 3, dose range 1), 10.5 µM; in experiment [4] (CCR6, dose range 1), 7.67 µM; in experiment [4] (setting [7]), 12 µM; in experiment [4] (CCR6, run 2, dose range 1) it was 16.3 µM.

On to `Cc1cccc(CSc2cccc3cccnc23)c1`, for which the IC50 in experiment [1] (CXCR6, dose range 1) is 3.79 µM; in experiment [1] (setting [5]), 3.51 µM; in experiment [1] (CXCR6, run 1, dose range 2) it was 2.78 µM; in experiment [1] (CXCR6, run 2, dose range 1) it was 4.39 µM; in experiment [1] (CXCR6, run 2, dose range 2), 3.09 µM; in experiment [2] (dose range 1), > 80 µM (inactive). The IC50 was greater than 80 µM in experiment [2] (setting [6]); 2.86 µM in experiment [3] (dose range 1); 3.95 µM in experiment [3] (setting [6]); 4.91 µM in experiment [3] (run 2, dose range 1); 4.08 µM in experiment [3] (run 3, dose range 1); 3.94 µM in experiment [4] (CCR6, dose range 1). Besides, the IC50 in experiment [4] (setting [7]) stood at 4.64 µM; in experiment [4] (CCR6, run 2, dose range 1), 5.33 µM.
